Source: patent US11571435B2, “S1PR4-targeting composition for preventing or treating non-alcoholic steatohepatitis” (UNIVERSITY OF ULSAN FOUNDATION FOR INDUSTRY COOPERATION, priority 2017, dated 2023)
One block for each compound: values may come before it.

Key:
[1] = reported for FTY720; cited from earlier work
S1PR4-EGFP = assay: S1PR4 internalization and recycling in cell lines overexpressing S1PR4-EGFP (fluorescence microscopy); type: cell-based; conditions: S1P 100 nM, FTY720 100 nM, SLB736 1 μM, cycloheximide; for S1PR4 internalization: 30 minutes after treatment; for S1PR4 recycling to the cell membrane: 2 hours (washed after 30 minutes)
Procedure: Cell lines overexpressing S1PR4-EGFP were used to identify whether or not SLB736 and FTY720 actually internalize S1PR4 into cells and thereby act as functional antagonists.
Specifically, the cell lines overexpressing S1PR4-EGFP were incubated in a cover glass allowing for microscopic observation and were then treated with a vehicle (dimethyl sulfoxide […]), S1P (100 nM; agonist, positive control group), FTY720 (100 nM) and SLB736 (1 μM). 30 minutes and 2 hours after treatment with each material, the cell lines were fixed with a fixing solution and observed with a fluorescence microscope. At this time, the cells were cultured after treatment with a protein synthesis inhibitor (cycloheximide) in order to inhibit the synthesis of new receptors, were first observed with a fluorescence microscope 30 minutes after each material treatment, and were then washed. Then, the cells were further cultured for 1 hour 30 minutes and were secondarily observed, and cell images were obtained.

[2] = leukocytes and lymphocytes in whole blood after administration (lymphopenia); type: in vivo, mouse; conditions: mice, automated analyzer
Procedure: Therefore, when the SLB736 of the present invention was administered, changes of leukocytes and lymphocytes in the blood were measured to determine the possibility of side effects. On the day of autopsy, blood was collected from the posterior vein using a syringe and whole blood was refrigerated in an EDTA-2K CBC bottle. The leukocytes and lymphocytes in the whole blood were measured using an automated analyzer.

S1PR4 [3] = biological target: T1, S1PR4 (Mus musculus, UniProt Q9Z0L1); assay: S1PR4 protein expression in liver tissue of MCDD-fed mice (Western blotting); type: in vivo; conditions: C57BL/6N mice, 1 mg/kg with MCDD for 6 weeks, vs MCDD alone
T1 construct: endogenous in cells; host or cells: Raw cells (mouse macrophage line)
T1 sequence (Q9Z0L1 1-386): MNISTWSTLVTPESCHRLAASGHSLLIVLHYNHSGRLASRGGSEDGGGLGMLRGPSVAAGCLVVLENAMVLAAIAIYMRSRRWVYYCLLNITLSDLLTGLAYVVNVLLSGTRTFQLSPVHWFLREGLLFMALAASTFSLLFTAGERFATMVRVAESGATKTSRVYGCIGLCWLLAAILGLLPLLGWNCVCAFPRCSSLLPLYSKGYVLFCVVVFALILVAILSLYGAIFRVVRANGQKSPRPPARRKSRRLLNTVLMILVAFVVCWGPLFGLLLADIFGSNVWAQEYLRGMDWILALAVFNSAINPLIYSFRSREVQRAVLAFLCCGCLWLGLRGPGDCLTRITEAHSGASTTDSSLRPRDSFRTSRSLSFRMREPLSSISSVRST
From the text: In order to determine whether or not SLB736, the compound of the present invention, acts as a functional antagonist of S1PR4, changes in S1PR4 protein expression were observed after administration of candidate substances to nonalcoholic steatohepatitis (NASH) model mice and macrophages thereof.
It is well known that the administration of a methionine choline-deficient diet (MCDD) to mice results in non-alcoholic steatohepatitis. The mice (C57BL/6N, Orient Bio, Inc., Korea) used in the experiments were divided into three groups, and MCDD alone, 1 mg/kg of MCDD and FTY720, and 1 mg/kg of MCDD and SLB736 were administered to each group for 6 weeks. Then, changes in the expression of S1PR4 protein in liver tissue of mice were measured through Western blotting.

S1PR4 [4] = biological target: T1, S1PR4; assay: S1PR4 expression in LPS-treated Raw cells; type: cell-based; conditions: substance then LPS, vs LPS only
Procedure: In addition, Raw cells, which are mouse macrophage lines, were treated with a FTY720 or SLB736 substance, and were then treated with LPS, and S1PR4 expression was then measured.

S1PR4 [5] = biological target: T2, S1PR4 (Homo sapiens, UniProt O95977); assay: agonistic activity of S1P receptors, GPCR activity measurement method of DiscoveRX Corp.; type: cell-based
T2 construct: purchased DiscoveRX Corp
T2 sequence (O95977 1-384): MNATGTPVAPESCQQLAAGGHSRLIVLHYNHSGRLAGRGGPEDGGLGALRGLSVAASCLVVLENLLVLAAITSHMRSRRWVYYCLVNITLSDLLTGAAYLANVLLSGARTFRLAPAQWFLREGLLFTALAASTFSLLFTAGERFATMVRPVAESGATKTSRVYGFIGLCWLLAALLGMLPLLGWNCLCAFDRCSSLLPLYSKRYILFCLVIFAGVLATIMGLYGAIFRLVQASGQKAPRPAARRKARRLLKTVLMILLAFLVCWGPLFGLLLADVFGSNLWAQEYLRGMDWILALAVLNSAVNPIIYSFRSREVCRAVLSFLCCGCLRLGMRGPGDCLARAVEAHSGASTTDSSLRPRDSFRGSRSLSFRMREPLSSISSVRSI

[6] = test system: non-alcoholic steatohepatitis (NASH) caused by MCDD; assay: prevention of NASH onset in mice administered MCDD for 6 weeks; type: in vivo, mouse
From the text: In order to identify the effect of the SLB736 compound on the prevention of onset of non-alcoholic steatohepatitis (NASH), an animal model administered with MCDD for 6 weeks was used. Generally known characteristic microscopic findings of NASH include steatosis, ballooning degeneration of hepatocytes, lobular inflammation, perisinusoidal fibrosis and the like. In 2005, the NASH clinical research network (CRN) designed a detailed grading system for lesions corresponding to nonalcoholic steatohepatitis and thus proposed the nonalcoholic fatty liver disease activity score (NAS), which is widely used in various research due to the excellent reproducibility thereof. Accordingly, the present inventors have scored the grade of steatosis, location of steatosis, lobular inflammation and the extent of fibrosis, from the results of liver tissue observation of animal models, based on the CRN classification system. Based on this, the effect of SLB736, which is the target compound in the present invention, on the prevention or progression of non-alcoholic steatohepatitis caused by MCDD was evaluated. […] In order to determine this quantitatively, evaluation was conducted according to the NAS system of the CRN. […] In addition, the expression levels of TGF-β, TNF-α and MCP-1 were measured in order to identify the effects of the SLB736 compound on the expression of inflammatory markers and fibrosis markers in liver tissue. Specifically, RNA was extracted from liver tissue of the animal model and mRNA was measured using Q-PCR.

NLRP3 inflammasome = assay: IL-1β production of LPS-treated macrophages (NLRP3 inflammasome activity); type: cell-based, mouse; conditions: Raw cells; for inhibitory effect of IL-1β production: then LPS
From the text: It is well known that the treatment of macrophages with lipopolysaccharide (LPS) results in activation of inflammation-regulating complex (inflammasome), thereby increasing IL-1β production (Mariathasan et al., Nat. Rev. Immunol. 2007; 17186029). In order to determine the inhibitory effect of the activity of inflammation-regulating complex (NLRP3 inflammasome), which is a representative inflammation-regulating protein, the IL-1(3 production of candidate substances upon the treatment of macrophages with LPS was measured and evaluated.
The macrophages were treated with myriocin in different concentrations as a control group and were then treated with the same concentration of LPS for 24 hours. […] Based on this, experiments were conducted to determine the effect of sphingolipid candidates on the inhibition of IL-1β.

[7] = test system: non-alcoholic steatohepatitis (NASH) caused by MCDD; assay: treatment of NASH in NASH-induced mice (MCDD for 4 weeks, then 4 weeks treatment); type: in vivo, mouse; conditions: 5 mg/kg/day for 4 weeks after 4 weeks MCDD, liver tissue
Procedure: A NASH-induced animal model obtained by administering MCDD to 8-week-old mice (C57BL6/N, Orient Bio Inc., Korea) for 4 weeks was used in order to identify the effect of the SLB736 compound on the treatment of non-alcoholic steatohepatitis (NASH). Specifically, the NASH-induced model mice were divided into two groups, the control group was further fed with MCDD for 4 weeks, the experimental group was fed with SLB736 at a dose of 5 mg/kg/day for 4 weeks in combination with MCDD, and liver tissue was collected from each mouse and observed with a microscope to determine the degree of steatosis, lobular inflammation and fibrosis.

[8] = 10 times a normal dose; cited from earlier work
[9] = 1 mg/kg/day for six weeks with MCDD, liver tissue
[10] = 1 mg/kg/day for six weeks with MCDD, vs control group
[11] = liver tissue, MCDD 6 weeks model

Compound: CCCCCCCCc1ccc(CCC(N)(CO)CO)cc1 [FTY720, Fingolimod]
side effect in the blood [1]: lymphopenia in the blood

Compound: CCCCCCCCCCCCC/C=C/[C@@H](O)[C@@H](N)COP(=O)(O)O [S1P, sphingosine 1-phosphate, reference compound]
S1PR4 internalization (S1PR4-EGFP): internalized
S1PR4 recycling to the cell membrane (S1PR4-EGFP): recycled to the cell membrane

leukocytes in blood [2]: no reduction
lymphocytes in blood [2]: no reduction
amount of S1PR4 protein in liver tissue (S1PR4 [3]): decreased
expression level of S1PR4 (S1PR4 [4]): significantly reduce
agonistic activity of S1P receptors (S1PR4 [5]): agonistic effect specific for S1PR4
Compound: CCCCCCCCCCn1cc(CCC(N)(CO)CO)nn1 [SLB736, 2-amino-2-(2-(1-decyl-1H-1,2,3-triazol-4-yl)ethyl)propane-1,3-diol]
S1PR4 internalization (S1PR4-EGFP): internalized
S1PR4 recycling to the cell membrane (S1PR4-EGFP): not recycled
degree of fibrosis (microscope) [6, 9]: significantly reduced
degree of steatosis (microscope) [6, 9]: significantly reduced
lobular inflammation (microscope) [6, 9]: significantly reduced
degree of fibrosis, NAS system of the CRN [6, 10]: significantly alleviated
degree of steatosis, NAS system of the CRN [6, 10]: significantly alleviated
lobular inflammation, NAS system of the CRN [6, 10]: significantly alleviated
expression of MCP-1 (mRNA, Q-PCR) [6, 11]: reduced to a significant level
expression of TGF-β (mRNA, Q-PCR) [6, 11]: reduced to a significant level
expression of TNF-α (mRNA, Q-PCR) [6, 11]: reduced to a significant level
inhibitory effect of IL-1β production (NLRP3 inflammasome; 0.1 μM): excellent
inhibitory effect of IL-1β production (NLRP3 inflammasome; 1.0 μM): excellent
degree of fibrosis (microscope) [7]: considerable reduction
degree of steatosis (microscope) [7]: considerable reduction
lobular inflammation (microscope) [7]: considerable reduction

Compound: CCCCCCC(=O)CCCCCC/C=C/C[C@@H](O)[C@H](O)[C@@](N)(CO)C(=O)O [myriocin, reference compound]
IL-1β production (NLRP3 inflammasome; 10 μM, then LPS 100 ng/ml for 24 hours): effectively reduced IL-1β production
toxicity in animals [8]: death from severe digestive disorders
